{"source": "ChEMBL document CHEMBL1148416", "about": "“2-Alkylsulfanyl estrogen derivatives: synthesis of a novel class of multi-targeted anti-tumour agents” (Bioorg Med Chem Lett, 2004)", "data": [{"test_system": "MCF7", "experiment": "Anti-proliferative activity against MCF-7 human breast cancer cells was determined by using MCF-7 plate assay", "format": "functional, cell-based", "units": {"IC50": "µM"}, "values": [{"smiles": "CSc1cc2c(cc1O)CC[C@@H]1[C@@H]2CC[C@]2(C)[C@@H](O)CC[C@@H]12", "IC50": 3.96}, {"smiles": "CSc1cc2c(cc1OS(N)(=O)=O)CC[C@@H]1[C@@H]2CC[C@]2(C)[C@@H](O)CC[C@@H]12", "IC50": 0.43}, {"smiles": "CCSc1cc2c(cc1OS(N)(=O)=O)CC[C@@H]1[C@@H]2CC[C@]2(C)[C@@H](O)CC[C@@H]12", "IC50": 35.3}, {"smiles": "CSc1cc2c(cc1OS(N)(=O)=O)CCC1[C@@H]2CC[C@]2(C)C(=O)CC[C@@H]12", "note": "(single isomer, unassigned)", "IC50": 0.4}, {"smiles": "CSc1cc2c(cc1O)CCC1[C@@H]2CC[C@]2(C)C(=O)CC[C@@H]12", "note": "(single isomer, unassigned)", "IC50": 33.4}, {"smiles": "CCSc1cc2c(cc1O)CCC1[C@@H]2CC[C@]2(C)C(=O)CC[C@@H]12", "note": "(single isomer, unassigned)", "IC50": 31.9}, {"smiles": "C[C@]12CC[C@@H]3c4ccc(OS(N)(=O)=O)cc4CCC3[C@@H]1CCC2=O", "note": "(single isomer, unassigned) [EMATE]", "IC50": 22.8}, {"smiles": "COc1cc2c(cc1O)CC[C@@H]1[C@@H]2CC[C@]2(C)[C@@H](O)CC[C@@H]12", "note": "[2-METHOXYESTRADIOL]", "IC50": 2.39}]}]}
